Test results taken from patent US11274101B2, “Heterocyclic compound” (Takeda Pharmaceutical Company Limited, priority 2017, dated 2022).

Biological target: T1, His-hMAGL (recombinant polyhistidine tagged human MAGL protein) (Homo sapiens, UniProt Q99685)
T1 construct: made in house; host or cells: E. coli BL21(DE3)
T1 sequence (Q99685 1-303): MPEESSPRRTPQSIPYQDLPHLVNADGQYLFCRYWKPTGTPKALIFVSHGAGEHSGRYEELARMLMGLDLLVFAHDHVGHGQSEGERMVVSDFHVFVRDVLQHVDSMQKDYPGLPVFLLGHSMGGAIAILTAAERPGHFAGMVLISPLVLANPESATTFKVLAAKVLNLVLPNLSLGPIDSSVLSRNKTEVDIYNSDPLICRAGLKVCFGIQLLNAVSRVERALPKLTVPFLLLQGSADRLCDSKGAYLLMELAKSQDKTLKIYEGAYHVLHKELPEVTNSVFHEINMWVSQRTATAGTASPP
Assay: Measurement of MAGL inhibitory activity (arachidonic acid production from 2-arachidonylglycerol, RapidFire-mass spectrometry)
Assay type: biochemical
Details: test compound 10 μM; MAGL inhibitory rate
Method: The His-hMAGL obtained above was diluted with enzyme reaction buffer (10 mM Tris-HCl, pH 7.5, 1 mM EDTA, 0.025 (w/v) % Triton X-100, 0.01% Bovine serum albumin) to a concentration of 7.5 ng/mL. To each well of a 384 well assay plate (Greiner 781280) was added a solution (5 μL) of a test compound dissolved in dimethyl sulfoxide (DMSO), which was diluted with the above-mentioned enzyme reaction buffer, then His-hMAGL solution (5 μL) diluted to a concentration of 7.5 ng/mL was added, and the mixture was incubated at room temperature for 60 min. Thereafter, to each well was added 5 μL of 150 μM 2-arachidonylglycerol (Tocris Bioscience), and the mixture was incubated at room temperature for 10 min. Then, 10 μL of 2% formic acid (Wako Pure Chemical Industries, Ltd.) was added to stop the reaction. Furthermore, acetonitrile (50 μL) containing 3 μM arachidonic acid-d8 (Cayman Chemical Company) was added and the mixture was stirred.
The amount of arachidonic acid in the obtained enzyme reaction mixture was calculated by measuring by RapidFire-mass spectrometry and correcting by the amount of arachidonic acid-d8. High Throughput online solid phase extraction was performed using RapidFire 300™ system (Agilent Technologies, Inc.). Samples were loaded on SPE C4 cartridge (Agilent Technologies, Inc.) and desalted with 0.2 (v/v) % acetic acid (Wako Pure Chemical Industries, Ltd.) in ultrapure water/acetonitrile (70/30, v/v) at a flow rate of 1.5 mL/min, eluted at a flow rate of 0.5 mL/min with 0.2 (v/v) % acetic acid dissolved in acetonitrile/ultrapure water (90/10, v/v), and injected into the mass spectrometry part. The injection needle was washed with ultrapure water (500 millisecond) and acetonitrile (500 millisecond) to minimize carry-over. The suction time (injection loop 5 μL), load/cleansing time, elution time and re-equilibration time were adjusted to 300, 3000, 4250 and 1000 milliseconds, respectively, and the total cycle time was adjusted to about 10.0 seconds. The RapidFire300 system was controlled by RapidFire UI software version 3.6 (Agilent Technologies, Inc.).
The mass spectrometry of the resultant product was performed using API4000™ triple quadrupole mass spectrometer (AB SCIEX) equipped with an electrospray ion sauce (TurboIon Spray™) in a negative selected reaction monitoring (SRM) mode. The conditions of SRM are shown below. The parameters of the instrument were optimized as follows: capillary temperature 600° C., ion spray voltage −4.5 kV, collision gas 8, curtain gas 15 psi, ion source gas 1 60 psi, ion source gas 2 60 psi. The mass spectrometer was controlled by Analyst™ software version 1.5.1 (AB SCIEX). The peak area integration was analyzed using RapidFire integrator software version 3.6 (Agilent Technologies, Inc.).
MAGL inhibitory rate (%) was calculated according to the following calculation formula. (1-(arachidonic acid production amount of test compound addition group−arachidonic acid production amount of enzyme-free group)+(arachidonic acid production amount of test compound-free group−arachidonic acid production amount of enzyme-free group))×100

Compound	inhibition at 10 µM [%]
Cc1cc(COC[C@H]2C[C@@H](OC(=O)N3CC4(COC(=O)N4)C3)C2)ccc1Cl [Example 29, cis-3-(((4-chloro-3-methylbenzyl)oxy)methyl)cyclobutyl 6-oxo-7-oxa-2,5-diazaspiro [3.4]octane-2-carboxylate]	100
O=C1NC2(CO1)CN(C(=O)O[C@H]1C[C@@H](COCc3ccc(F)cc3Cl)C1)C2 [Example 30, cis-3-(((2-chloro-4-fluorobenzyl)oxy)methyl)cyclobutyl 6-oxo-7-oxa-2,5-diazaspiro[3.4]octane-2-carboxylate]	100
O=C1NC2(CO1)CN(C(=O)O[C@H]1C[C@@H](COCc3ccc(F)c(F)c3F)C1)C2 [Example 31, cis-3-(((2,3,4-trifluorobenzyl)oxy)methyl)cyclobutyl 6-oxo-7-oxa-2,5-diazaspiro[3.4]octane-2-carboxylate]	100
O=C1NC2(CO1)CN(C(=O)O[C@H]1C[C@@H](COCc3cc(F)c(F)cc3F)C1)C2 [Example 32, cis-3-(((2,4,5-trifluorobenzyl)oxy)methyl)cyclobutyl 6-oxo-7-oxa-2,5-diazaspiro [3.4]octane-2-carboxylate]	100
O=C1NC2(CO1)CN(C(=O)O[C@H]1C[C@@H](COCc3c(F)cc(F)cc3F)C1)C2 [Example 33, cis-3-(((2,4,6-trifluorobenzyl)oxy)methyl)cyclobutyl 6-oxo-7-oxa-2,5-diazaspiro[3.4]octane-2-carboxylate]	101
O=C1NC2(CO1)CN(C(=O)O[C@H]1C[C@H](Oc3ccc(C(F)(F)F)cc3F)C1)C2 [Example 34, trans-3-(2-fluoro-4-(trifluoromethyl)phenoxy)cyclobutyl 6-oxo-7-oxa-2,5-diazaspiro[3.4]octane-2-carboxylate]	99
O=C1NC2(CCN(C(=O)O[C@H]3C[C@@H](COc4ccc(F)c(F)c4F)C3)C2)CO1 (stereo partly drawn) [Example 35, cis-3-((2,3,4-trifluorophenoxy)methyl)cyclobutyl 2-oxo-3-oxa-1,7-diazaspiro[4.4]nonane-7-carboxylate]	100
O=C1NC2(CO1)CN(C(=O)O[C@H]1C[C@@H](COCc3ccc(C(F)(F)F)cc3F)C1)C2 [Example 36, cis-3-(((2-fluoro-4-(trifluoromethyl)benzyl)oxy)methyl)cyclobutyl 6-oxo-7-oxa-2,5-diazaspiro[3.4]octane-2-carboxylate]	100
O=C1NC2(CO1)CN(C(=O)O[C@H]1CC[C@H](Oc3ccc(C(F)(F)F)cc3F)CC1)C2 [Example 37, trans-4-(2-fluoro-4-(trifluoromethyl)phenoxy)cyclohexyl 6-oxo-7-oxa-2,5-diazaspiro[3.4]octane-2-carboxylate]	101
O=C1NC2(CO1)CN(C(=O)O[C@H]1CC[C@@H](Oc3ccc(C(F)(F)F)cc3F)CC1)C2 [Example 38, cis-4-(2-fluoro-4-(trifluoromethyl)phenoxy)cyclohexyl 6-oxo-7-oxa-2,5-diazaspiro[3.4]octane-2-carboxylate]	102
O=C1NC2(CO1)CN(C(=O)O[C@H]1C[C@H](Oc3ccc(F)c(F)c3F)C1)C2 [Example 39, trans-3-(2,3,4-trifluorophenoxy)cyclobutyl 6-oxo-7-oxa-2,5-diazaspiro[3.4]octane-2-carboxylate]	100
O=C1NC2(CO1)CN(C(=O)O[C@H]1C[C@@H](OCc3ccc(F)cc3F)C1)C2 [Example 40, cis-3-((2,4-difluorobenzyl)oxy)cyclobutyl 6-oxo-7-oxa-2,5-diazaspiro[3.4]octane-2-carboxylate]	100
O=C1NC2(CO1)CN(C(=O)O[C@H]1C[C@@H](OCc3ccc(F)c(F)c3)C1)C2 [Example 41, cis-3-((3,4-difluorobenzyl)oxy)cyclobutyl 6-oxo-7-oxa-2,5-diazaspiro[3.4]octane-2-carboxylate]	99
O=C1NC2(CO1)CN(C(=O)O[C@H]1C[C@H](OCc3ccccc3)C1)C2 [Example 42, trans-3-(benzyloxy)cyclobutyl 6-oxo-7-oxa-2,5-diazaspiro[3.4]octane-2-carboxylate]	99
O=C1NC2(CO1)CN(C(=O)O[C@H]1C[C@H](Oc3c(F)cc(F)cc3F)C1)C2 [Example 43, trans-3-(2,4,6-fluorophenoxy)cyclobutyl 6-oxo-7-oxa-2,5-diazaspiro[3.4]octane-2-carboxylate]	102
O=C1NC2(CO1)CN(C(=O)O[C@H]1C[C@@H](Oc3ccc(F)cc3Cl)C1)C2 [Example 44, cis-3-(2-chloro-4-fluorophenoxy)cyclobutyl 6-oxo-7-oxa-2,5-diazaspiro[3.4]octane-2-carboxylate]	103
Cc1ccc(O[C@H]2C[C@@H](OC(=O)N3CC4(COC(=O)N4)C3)C2)cc1F [Example 45, cis-3-(3-fluoro-4-methylphenoxy)cyclobutyl 6-oxo-7-oxa-2,5-diazaspiro[3.4]octane-2-carboxylate]	98
O=C1NC2(CO1)CN(C(=O)O[C@H]1C[C@@H](Oc3ccc(Cl)cc3)C1)C2 [Example 47, cis-3-(4-chlorophenoxy)cyclobutyl 6-oxo-7-oxa-2,5-diazaspiro[3.4]octane-2-carboxylate]	100
O=C1NC2(CO1)CN(C(=O)O[C@H]1C[C@@H](Oc3ccc(C(F)(F)F)cc3)C1)C2 [Example 48, cis-3-(4-(trifluoromethyl)phenoxy)cyclobutyl 6-oxo-7-oxa-2,5-diazaspiro[3.4]octane-2-carboxylate]	100
O=C1NC2(CO1)CN(C(=O)O[C@H]1C[C@@H](Oc3cccc(Cl)c3)C1)C2 [Example 49, cis-3-(3-chlorophenoxy)cyclobutyl 6-oxo-7-oxa-2,5-diazaspiro[3.4]octane-2-carboxylate]	100
Cc1cc(O[C@H]2C[C@@H](OC(=O)N3CC4(COC(=O)N4)C3)C2)ccc1F [Example 50, cis-3-(4-fluoro-3-methylphenoxy)cyclobutyl 6-oxo-7-oxa-2,5-diazaspiro[3.4]octane-2-carboxylate]	99
O=C1NC2(CO1)CN(C(=O)O[C@H]1C[C@@H](Oc3ccc(F)c(F)c3F)C1)C2 [Example 51, cis-3-(2,3,4-trifluorophenoxy)cyclobutyl 6-oxo-7-oxa-2,5-diazaspiro[3.4]octane-2-carboxylate]	99
O=C1NC2(CO1)CN(C(=O)O[C@H]1C[C@@H](Oc3ccccc3Cl)C1)C2 [Example 52, cis-3-(2-chlorophenoxy)cyclobutyl 6-oxo-7-oxa-2,5-diazaspiro[3.4]octane-2-carboxylate]	100
Cc1ccc(O[C@H]2C[C@@H](OC(=O)N3CC4(COC(=O)N4)C3)C2)cc1 [Example 53, cis-3-(4-methylphenoxy)cyclobutyl 6-oxo-7-oxa-2,5-diazaspiro[3.4]octane-2-carboxylate]	101
O=C1NC2(CO1)CN(C(=O)O[C@H]1C[C@@H](Oc3ccc(Cl)cc3F)C1)C2 [Example 54, cis-3-(4-chloro-2-fluorophenoxy)cyclobutyl 6-oxo-7-oxa-2,5-diazaspiro[3.4]octane-2-carboxylate]	100
Cc1cc(F)ccc1O[C@H]1C[C@@H](OC(=O)N2CC3(COC(=O)N3)C2)C1 [Example 55, cis-3-(4-fluoro-2-methylphenoxy)cyclobutyl 6-oxo-7-oxa-2,5-diazaspiro[3.4]octane-2-carboxylate]	100
